One data set has as its system 18f-NLuc reporter virus. As to the kind of experiment: microbe, parasite or virus in culture. It is filed as cell-based, Hepatitis A virus. The note with it: for activity at 10 µM: Hepatovirus A, Huh-7.5.1, 72 h, read-out: Normalized HAV production.
The subject of the next data set is Huh-7.5.1 cells. Description: Cell viability in the chemical screen (Cell TiterGlo). As to conditions: 10 µM compound, 72 h.

Where a name gives a salt, the structure may show the parent alone.

Regarding `CCn1cc(C(=O)O)c(=O)c2cc(F)c(N3CCNCC3)nc21` [Enoxacin], the activity at 10 µM in the data set with 18f-NLuc reporter virus was found to be 89%. Moreover, in the data set with Huh-7.5.1 cells, the “Viability Percent DMSO” value is listed as 159 Percent DMSO.
For `CC[n+]1c(-c2ccccc2)c2cc(N)ccc2c2ccc(N)cc21` [Ethidium bromide], the activity at 10 µM in the data set on 18f-NLuc reporter virus is 4.56%. In addition, the “Viability Percent DMSO” value with Huh-7.5.1 cells turned out to be 85 Percent DMSO.
`O=C(O)[C@H]1O[C@@H](Oc2cc3oc(-c4ccccc4)cc(=O)c3c(O)c2O)[C@H](O)[C@@H](O)[C@@H]1O` [Baicalin]: the activity at 10 µM with 18f-NLuc reporter virus was 81%. For the same compound, the “Viability Percent DMSO” value in the data set on Huh-7.5.1 cells was determined as 114 Percent DMSO.
With `CC1(C)[C@@H](O[C@H]2O[C@H](C(=O)O)[C@@H](O)[C@H](O)[C@H]2O[C@@H]2O[C@H](C(=O)O)[C@@H](O)[C@H](O)[C@H]2O)CC[C@]2(C)[C@H]3C(=O)C=C4[C@@H]5C[C@@](C)(C(=O)O)CC[C@]5(C)CC[C@@]4(C)[C@]3(C)CC[C@@H]12` [Glycyrrhizin], in the data set on 18f-NLuc reporter virus, the activity at 10 µM is 79%. Also, the “Viability Percent DMSO” value in the data set on Huh-7.5.1 cells stood at 124 Percent DMSO.
For `CC(C)OC(=O)C1=CN(C(=O)c2ccc(F)c(F)c2)CC(C)(C)c2c1[nH]c1ccccc21` [Turofexorate Isopropyl], the activity at 10 µM with 18f-NLuc reporter virus was 100%. Moreover, in the data set on Huh-7.5.1 cells, the “Viability Percent DMSO” value worked out at 161 Percent DMSO.
With `Nc1nc2c(ncn2[C@@H]2O[C@H](CO)[C@@H](O)[C@H]2O)c(=O)[nH]1` [Guanosine], the activity at 10 µM with 18f-NLuc reporter virus was 88%. Besides, in the data set on Huh-7.5.1 cells, the “Viability Percent DMSO” value is listed as 126 Percent DMSO.
On to `CCOC(=O)c1ccc(OCCC2CCN(c3ccc(C)nn3)CC2)cc1` [Pirodavir], for which the activity at 10 µM with 18f-NLuc reporter virus worked out at 91%. Moreover, in the data set with Huh-7.5.1 cells, the “Viability Percent DMSO” value stood at 134 Percent DMSO.
With `C[C@@H]1O[C@@H](O[C@H]2[C@H](Oc3cc(O)c4c(c3)O[C@H](c3ccc(O)cc3)CC4=O)O[C@H](CO)[C@@H](O)[C@@H]2O)[C@H](O)[C@H](O)[C@H]1O` [Naringin], the activity at 10 µM with 18f-NLuc reporter virus turned out to be 124%. Also, in the data set on Huh-7.5.1 cells, the “Viability Percent DMSO” value was 115 Percent DMSO.
Regarding `CCOC(=O)CCC(=O)O[C@H]1[C@H](O[C@@H]2[C@@H](C)[C@H](O[C@H]3C[C@@](C)(OC)[C@@H](O)[C@H](C)O3)[C@@H](C)C(=O)O[C@H](CC)[C@@](C)(O)[C@H](O)[C@@H](C)C(=O)[C@H](C)C[C@@]2(C)O)O[C@H](C)C[C@@H]1N(C)C` [Erythromycin ethylsuccinate], in the data set with 18f-NLuc reporter virus, the activity at 10 µM stood at 60%. In addition, the “Viability Percent DMSO” value in the data set with Huh-7.5.1 cells came to 107 Percent DMSO.
In the case of `COC(=O)N[C@H](C(=O)N[C@@H](Cc1ccccc1)[C@@H](O)CN(Cc1ccc(-c2ccccn2)cc1)NC(=O)[C@@H](NC(=O)OC)C(C)(C)C)C(C)(C)C` [Atazanavir], the activity at 10 µM with 18f-NLuc reporter virus was found to be 96%. The “Viability Percent DMSO” value with Huh-7.5.1 cells is 130 Percent DMSO.
As for `C=CC1=C(C(=O)O)N2C(=O)[C@@H](NC(=O)/C(=N\O)c3csc(N)n3)[C@H]2SC1` [Cefdinir], the activity at 10 µM in the data set on 18f-NLuc reporter virus worked out at 97%. The “Viability Percent DMSO” value in the data set on Huh-7.5.1 cells was found to be 101 Percent DMSO.
`O=C(/C=C\n1cnc(-c2cc(C(F)(F)F)cc(C(F)(F)F)c2)n1)NNc1ccccn1` [Verdinexor]: the activity at 10 µM with 18f-NLuc reporter virus turned out to be 22%. The “Viability Percent DMSO” value in the data set on Huh-7.5.1 cells was 174 Percent DMSO.
Take `Cc1cnc(C(=O)N[C@H]2CCCCC/C=C\[C@@H]3C[C@@]3(C(=O)NS(=O)(=O)C3CC3)NC(=O)[C@@H]3C[C@@H](Oc4nc5ccccc5c5ccccc45)CN3C2=O)cn1` [Paritaprevir]: in the data set with 18f-NLuc reporter virus, the activity at 10 µM is 64%. Also, the “Viability Percent DMSO” value in the data set on Huh-7.5.1 cells turned out to be 91 Percent DMSO.
Taken in the same sequence, the figures for `Cc1cn([C@@H]2C[C@@H](O)[C@H](CO)O2)c(=O)[nH]c1=O` [Telbivudine] were 156% and 108 Percent DMSO.
With `COc1cc2ncnc(Nc3cccc(Cl)c3)c2cc1OC` [AG-1478], in the data set with 18f-NLuc reporter virus, the “Normalized HAV production” value worked out at 0.51. Further, in the data set on Huh-7.5.1 cells, the “Viability Percent DMSO” value is recorded as 164 Percent DMSO.
As for `C=C(C)[C@@H]1CC[C@]2(CO)CC[C@]3(C)[C@H](CC[C@@H]4[C@@]5(C)CC[C@H](O)C(C)(C)[C@@H]5CC[C@]43C)[C@@H]12` [Betulin], the activity at 10 µM in the data set with 18f-NLuc reporter virus was found to be 119%. The “Viability Percent DMSO” value in the data set on Huh-7.5.1 cells worked out at 123 Percent DMSO.
In the case of `Clc1ccc(COC(Cn2ccnc2)c2ccc(Cl)cc2Cl)cc1` (stereo not shown) [Econazole], the activity at 10 µM in the data set with 18f-NLuc reporter virus is 100%.
As to `CCOCc1nc2c(N)nc3ccccc3c2n1CC(C)(C)O` [Resiquimod], the activity at 10 µM in the data set with 18f-NLuc reporter virus is 130%. Also, in the data set on Huh-7.5.1 cells, the “Viability Percent DMSO” value amounted to 107 Percent DMSO.
As to `CN(C)c1ccc(C(=C2C=CC(=[N+](C)C)C=C2)c2ccc(N(C)C)cc2)cc1` [Crystal Violet], the activity at 10 µM with 18f-NLuc reporter virus turned out to be 0.413%. In the data set with Huh-7.5.1 cells, the “Viability Percent DMSO” value came out at 20 Percent DMSO.
As to `Nc1ccn([C@@H]2CS[C@H](CO)O2)c(=O)n1` [Lamivudine], the activity at 10 µM with 18f-NLuc reporter virus came out at 86%. Further, in the data set on Huh-7.5.1 cells, the “Viability Percent DMSO” value was determined as 120 Percent DMSO.
Regarding `O=C1CCC[C@@H]2[C@H]3CCC[N+]4([O-])CCC[C@@H](CN12)[C@@H]34` (stereo partly shown) [Oxymatrine], the activity at 10 µM in the data set on 18f-NLuc reporter virus stood at 100%. Besides, the “Viability Percent DMSO” value in the data set with Huh-7.5.1 cells worked out at 92 Percent DMSO.
Turning to `Nc1nc2c(ncn2COCCO)c(=O)[nH]1` [Aciclovir], the activity at 10 µM in the data set on 18f-NLuc reporter virus turned out to be 99%. Further, in the data set on Huh-7.5.1 cells, the “Viability Percent DMSO” value is recorded as 110 Percent DMSO.
With `Nc1ccn([C@H]2CC[C@@H](CO)O2)c(=O)n1` [Zalcitabine], the activity at 10 µM in the data set on 18f-NLuc reporter virus was 98%. In the data set with Huh-7.5.1 cells, the “Viability Percent DMSO” value was 99 Percent DMSO.
With `CC(C)c1nc(CN(C)C(=O)N[C@@H](CCN2CCOCC2)C(=O)N[C@H](CC[C@H](Cc2ccccc2)NC(=O)OCc2cncs2)Cc2ccccc2)cs1` [Cobicistat], in the data set on 18f-NLuc reporter virus, the activity at 10 µM is 34%. The “Viability Percent DMSO” value in the data set on Huh-7.5.1 cells was found to be 176 Percent DMSO.
In the same order, the values of `Cc1nc(Nc2ccc(F)cc2)nc(N2CCc3ccccc3C2C)c1C` (stereo not shown) [Revaprazan hydrochloride] are 87% and 115 Percent DMSO.
In the case of `COc1cc2c(cc1Cc1cccc(Cl)c1F)c(=O)c(C(=O)O)cn2[C@H](CO)C(C)C` [Elvitegravir], the activity at 10 µM in the data set on 18f-NLuc reporter virus is 95%. Also, in the data set with Huh-7.5.1 cells, the “Viability Percent DMSO” value is reported as 118 Percent DMSO.
As to `C[C@H]1CO[C@@H]2Cn3cc(C(=O)NCc4ccc(F)cc4F)c(=O)c(O)c3C(=O)N12` [Cabotegravir], the activity at 10 µM in the data set with 18f-NLuc reporter virus was 49%. Also, in the data set with Huh-7.5.1 cells, the “Viability Percent DMSO” value amounted to 170 Percent DMSO.
Take `CC[C@@H](CO)NCCN[C@@H](CC)CO` [Ethambutol dihydrochloride]: in the data set on 18f-NLuc reporter virus, the activity at 10 µM was 83%. The “Viability Percent DMSO” value in the data set on Huh-7.5.1 cells amounted to 112 Percent DMSO.
Take `COC(=O)C1=C(C)NC(c2ncc(F)cc2F)=NC1c1ccc(F)cc1Cl` (racemic) [Bay 41-4109 racemate]: in the data set with 18f-NLuc reporter virus, the “Normalized HAV production” value came out at 0.84.
For the compound Maraviroc, in the data set on 18f-NLuc reporter virus, the “Normalized HAV production” value stood at 0.94.
In the case of `Clc1ccc(COC(Cn2ccnc2)c2ccc(Cl)cc2Cl)c(Cl)c1` (stereo not shown) [Miconazole], the activity at 10 µM in the data set on 18f-NLuc reporter virus is 74%.
Turning to `O=C[C@H](O)[C@H]1OC(=O)[C@@H](O)[C@H]1O` [Dicurone], the “Normalized HAV production” value in the data set on 18f-NLuc reporter virus turned out to be 1.16.
In the case of `CC(C)c1nc(CN(C)C(=O)N[C@H](C(=O)N[C@@H](Cc2ccccc2)C[C@H](O)[C@H](Cc2ccccc2)NC(=O)OCc2cncs2)C(C)C)cs1` [Ritonavir], the activity at 10 µM in the data set on 18f-NLuc reporter virus was 34%.
In the case of `Clc1ccccc1C(c1ccccc1)(c1ccccc1)n1ccnc1` [Clotrimazole], the activity at 10 µM in the data set with 18f-NLuc reporter virus was determined as 85%.

These data come from publication PMC12282101, “Heat shock protein 90 chaperone activity is required for hepatitis A virus replication” (Journal of Virology, 2025).
